According to PubChem BioAssay (NCI):
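Briefly, cells in 96-well plates were exposed to five compound concentrations for 48 h, and endpoints were estimated by linear interpolation. Definition used: TGI = concentration required for complete inhibition of growth.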

Assays:
Experiment in all cases: NCI-60 cell line screen, 48 h
786-0 renal = tested on: 786-0 renal
A549 NSCLC = tested on: A549 NSCLC
BT-549 breast = tested on: BT-549 breast
COLO 205 colon = tested on: COLO 205 colon
EKVX NSCLC = tested on: EKVX NSCLC
HCC-2998 colon = tested on: HCC-2998 colon
HCT-15 colon = tested on: HCT-15 colon
IGROV1 ovarian = tested on: IGROV1 ovarian
MCF7 breast = tested on: MCF7 breast
MDA-MB-435 = tested on: MDA-MB-435
MDA-N = tested on: MDA-N
MOLT-4 leukemia = tested on: MOLT-4 leukemia
NCI-H226 lung = tested on: NCI-H226 lung
RXF 393 renal = tested on: RXF 393 renal
SK-OV-3 ovarian = tested on: SK-OV-3 ovarian
SNB-75 CNS = tested on: SNB-75 CNS
SR leukemia = tested on: SR leukemia

| Structure (SMILES) | TGI (786-0 renal) [µM] | TGI (A549 NSCLC) [µM] | TGI (BT-549 breast) [µM] | TGI (COLO 205 colon) [µM] | TGI (EKVX NSCLC) [µM] | TGI (HCC-2998 colon) [µM] | TGI (HCT-15 colon) [µM] | TGI (IGROV1 ovarian) [µM] | TGI (MCF7 breast) [µM] | TGI (MDA-MB-435) [µM] | TGI (MDA-N) [µM] | TGI (MOLT-4 leukemia) [µM] | TGI (NCI-H226 lung) [µM] | TGI (RXF 393 renal) [µM] | TGI (SK-OV-3 ovarian) [µM] | TGI (SNB-75 CNS) [µM] | TGI (SR leukemia) [µM] |
| --- | --- | --- | --- | --- | --- | --- | --- | --- | --- | --- | --- | --- | --- | --- | --- | --- | --- |
| CN(C)c1ccc(C(Cc2ccccc2)C2NC(=S)NC2=O)cc1 (centres undefined) | > 100 | > 100 | > 100 | > 100 | > 100 | > 100 | > 100 | > 100 | > 100 | > 100 | > 100 | > 100 | > 100 | > 100 | > 100 | > 100 | > 100 |
| Cc1ccc(NC(Nc2ccc(C)cc2C)=C(/C=C(\Cl)[N+](=O)[O-])[N+](=O)[O-])c(C)c1 | 8.95 | 35 | 11.7 | 4.99 | 32.3 | 38.4 | 11.5 | 20.9 | 12.4 | 7.98 | 10.9 | 4.82 | 22.1 | 3.75 | 21 | 16.4 | 4.13 |
| CN1c2ccccc2C(=O)NC12CCN(CCCC(=O)c1ccc(F)cc1)CC2 | > 100 | > 100 | > 100 | 30.4 | > 100 | 40.3 | > 100 | > 100 | > 100 | > 100 | > 100 | 71.2 | > 100 | > 100 | > 100 | > 100 | > 100 |
| O=[N+]([O-])c1nccn1CCCNc1ccnc2cc(Cl)ccc12 | > 100 | > 100 | > 100 | > 100 | > 100 | 55.3 | > 100 | > 100 | > 100 | > 100 | > 100 | > 100 | 10.8 | > 23 | > 100 | > 100 | > 75.3 |
| C[n+]1ccc(/C2=C3\C=CC(=N3)/C(c3cc[n+](C)cc3)=c3/cc/c([nH]3)=C(\c3cc[n+](C)cc3)C3=N/C(=C(/c4cc[n+](C)cc4)C4C=CC2N4)C=C3)cc1 | > 100 | > 100 | > 100 | > 100 | > 100 | > 100 | > 100 | > 100 | > 100 | > 100 | > 100 | > 100 | > 100 | > 100 | > 100 | > 100 | > 32.9 |
| CC1(/C=C/CCSc2ccccc2)CC(=O)C2CC1C2(C)C (centres undefined) | > 54.6 | > 100 | 42.1 | 70.6 | > 100 | > 73.5 | > 96 | 53.5 | > 100 | > 87.6 | > 100 | > 40.5 | > 100 | > 100 | > 100 | > 100 | 16.9 |
| C=CCN1C(=O)/C(=C/c2cccs2)N=C1SC/C=C/C | > 100 | > 100 | > 100 | 88.9 | > 100 | > 100 | > 100 | > 100 | > 100 | > 100 | > 100 | 44.6 | > 100 | 85.2 | > 100 | > 100 | 45.8 |
| CCC1(c2ccccc2)C(=O)N=C(c2ccccc2)N1CCc1ccccc1 (centres undefined) | > 100 | > 100 | > 100 | > 100 | > 100 | > 100 | > 100 | > 100 | > 100 | > 100 | > 100 | > 100 | > 100 | > 100 | > 100 | > 100 | > 100 |
| CC(C)(C)OC(=O)NC(Cc1ccccc1)OCc1ccccc1 (centres undefined) | 31 | 32.8 | 55.2 | > 100 | 35.9 | 43.7 | 36.1 | > 10 | 35.9 | 42.7 | 38.1 | 77.6 | 34.4 | 35.1 | 31.4 | 25.4 | > 100 |
| CC(=O)Nc1ccc(C(O)/C(=N/N)c2nc3ccc(Cl)cc3[nH]c2=O)cc1 (centres undefined) | > 100 | > 100 | > 100 | > 100 | > 100 | > 100 | > 100 | > 100 | > 100 | > 100 | > 100 | > 100 | > 100 | > 100 |  | > 100 | > 100 |
